Test results taken from publication PMC4592835 (Bioorganic & medicinal chemistry letters, 2015).

Tests used:
[1] = test system: caspase-3/7; test: Enzymatic activity of caspases-3/7 in treated MDA-MB-231 cells; assay type: cell-based, human; conditions: MDA-MB-231 cells treated at 10 μM
[2] = test system: human metastatic breast cancer line, MDA-MB-231; conditions: different experimental conditions; cited from earlier work

Row | SMILES | potency relative to monomer M11 in caspase-3/7 activation [1] | in vivo activity profile compared with M11, in words [2]
1 | CN[C@@H](C)C(=O)N[C@@H](CSCc1ccc(-c2ccc(CSC[C@H](NC(=O)[C@H](C)NC)C(=O)N3CCC[C@H]3C(=O)NC(c3ccccc3)c3ccccc3)cc2)cc1)C(=O)N1CCC[C@H]1C(=O)NC(c1ccccc1)c1ccccc1 [Compound D13] | ~ 2.5 × | –
2 | CN[C@@H](C)C(=O)N[C@H]1CCCC[C@H]2CC[C@@H](C(=O)N[C@@H](c3ccccc3)c3cn(CCCCc4ccc(CCCCn5cc([C@@H](NC(=O)[C@@H]6CC[C@@H]7CCCC[C@H](NC(=O)[C@H](C)NC)C(=O)N76)c6ccccc6)nn5)cc4)nn3)N2C1=O [SM-164] | – | markedly improved activity profiles
